Read-outs that look alike come from different tables or passages of the source.
Tested on: microglial cells
Assay: Inhibition of microglial migration evoked by ATP
Format: cell-based
Method: (§1) FIG. 8 is a series of images confirming NAGH acts as a sigma receptor agonist. A) Concentration-response relationship for NAGH (closed circles) and DTG (open circles) inhibition of microglial migration evoked by 100 μM ATP. […] Points represent mean (±SEM) and for all points, n>9. B) Bar graph of the mean (±SEM) number of microglial cells migrating in response to 100 μM ATP when ATP was added alone (DMEM) or in the presence of 100 μM NAGH. Microglia were further exposed to no σ antagonist (Control), or the σ-1 antagonist, BD-1047 (10 μM, BD-1047), or the σ-2 antagonist, rimcazole (10 μM, Rimcazole). Asterisks denote significant difference between DMEM and NAGH within Control, BD-1047 and Rimcazole groups, respectively. Pound symbols indicate significant difference between Control, BD-1047 and Rimcazole within DMEM and NAGH groups, respectively. P<0.05 and n=24 for all groups.
as §1, with “8A illustrates the concentration-response” for “8 is a series of images confirming NAGH acts as a sigma receptor agonist. A) Concentration-response”, “FIG. 8B depicts a bar” for “B) Bar”

[1] = migration evoked by 100 μM ATP, two-component Langmuir-Hill fit

**Q.** Which results are given for `Cl.N=C(Nc1cccc2ccccc12)Nc1cccc2ccccc12` [NAGH, N,N′-di-1-Naphthylguanidine hydrochloride]?
**A.** Microglial migration (100 μM ATP, via σ-1 and σ-2 receptors): blocks microglial migration; Emax, high affinity component [1]: 0.43; Emax, low affinity component [1]: 0.57; Hill coefficient, high affinity component [1]: 2.2; Hill coefficient, low affinity component [1]: 0.80; IC50 (migration evoked by 100 μM ATP, two-component Langmuir-Hill fit, read-out: IC50, high affinity component): 0.75 µM; IC50 (read-out: IC50, low affinity component): 84 µM
